Experimental data from patent US10995129B2 (Case Western Reserve University, priority 2011, dated 2021).

Tests used:
[1] = test system: Normal male Sprague-Dawley rats; experiment: Hyperinsulinemic-euglycemic clamp; type: in vivo, rat
Method: A primed infusion of glucose was administered followed by a continuous dosage. […] Glucose appearance and disposal was determined by calculating the difference between glucose infused and glucose present in the plasma as determined by glucometer. Plasma levels of plasma nonesterified fatty acids (NEFA) are determined using a colorimeteric assay such as the assay kit available from Fujifilm Wako Diagnostics (Mountain View, Calif.). Phosphorylation relative to basal level was measured using Western blot analysis of samples harvested from liver, gastrocnemius and epididymal white adipose tissue (eWAT), and immunoblotted using anti-phosphotyrosine antibody (Cell Signaling Technologies, Inc., Danvers, Mass., Phospho-IGF-I Receptor β ([MUT]) Rabbit monoclonal antibody #3918). Similarly Akt phosphorylation was similarly tested using Cell Signaling Technology, Inc. (Danvers, Mass.) antibody No. 9271 as primary antibody and horse radish peroxidase (HRP)-linked Anti-rabbit IgG antibody No. 7074 (Cell Signaling Technology, Inc., Danvers, Mass.).

[2] = target: A isoform of the insulin receptor (IR-A) (Homo sapiens, UniProt P06213); experiment: Affinity of the GluA8, TrpA13, ChaB24 analogue for receptor isoform A; type: binding
[3] = target: B isoform of the insulin receptor (IR-B) (Homo sapiens, UniProt P06213); experiment: Affinity of the GluA8, TrpA13, ChaB24 analogue for receptor isoform B; type: binding

“CHA: insulin analogue with Glu A8, Trp A13 and cyclohexanylalanine B24; SEQ ID NOS: 50 and 51” was tested, and the “increase of insulin stimulated whole body glucose disposal (Rd)” value ([1]; FIG. 16B) was “to a similar degree”, the “insulin stimulated whole body glucose disposal (Rd)” value ([1]; FIG. 16B legend) was 21.1 ± 1.4 mg/kg/min and the “insulin receptor tyrosine phosphorylation (IRKpY) in liver, vs KP” value ([1]; Western blot, FIG. 16D) was “decrease”. The “IRKpY activation in gastrocnemius muscle, vs KP” value ([1]; Western blot, FIG. 16E) was “to a similar degree”, the “IRKpY activation in epididymal white adipose tissue (eWAT), vs KP” value ([1]; Western blot, FIG. 16F) was “to a similar degree” and the “GINF (glucose infusion)” value ([1]; during clamp) was 21.1 ± 1.4 mg/kg/min. For the same substance, the “clamped plasma glucose concentration” value ([1]; during clamp, KP 24, CHA 40 pmol/kg-min) was 111.1 ± 5.1 mg/dL, the “suppression of endogenous glucose production (EGP)” value ([1]; hyperinsulinemic conditions, p=0.001) was 28.2±16.7% and the “2-deoxyglucose uptake in eWAT” value ([1]; rat, in vivo) was 0.72±0.1 mg glucose·kg tissue^−1·min^−1. For the same substance, the “2-deoxyglucose uptake in gastrocnemius” value ([1]; rat, in vivo) was 18.6±2.5 mg glucose·kg tissue^−1·min^−1, the “lower affinity for the A isoform of the insulin receptor” value [2] was “five” and the “lower affinity for the B isoform of the insulin receptor” value [3] was 13 fold.
